{
  "source": "paper PMC3480714",
  "about": "(Nature chemical biology, 2012)",
  "target": "T1, CobL (Rhodobacter capsulatus, UniProt D5AV04)",
  "T1 sequence (D5AV04 214-396)": "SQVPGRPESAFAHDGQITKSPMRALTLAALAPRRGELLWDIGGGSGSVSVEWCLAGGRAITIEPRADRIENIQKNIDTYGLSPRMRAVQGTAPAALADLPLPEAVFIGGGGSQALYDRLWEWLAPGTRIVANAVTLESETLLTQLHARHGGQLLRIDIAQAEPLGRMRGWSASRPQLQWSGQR",
  "test": "X-ray crystal structure at […] Å",
  "format": "binding",
  "data": [
    {"smiles": "Nc1ncnc2c1ncn2[C@@H]1O[C@H](CSCC[C@H](N)C(=O)O)[C@@H](O)[C@H]1O", "note": "[SAH]", "values": [
      {"measurement": "X-ray crystal structure at 2.7 Å", "result": "The SAM binding site of the CobL^C subunit showing SAH bound at the C-terminal end of the Rossmann-like"}
    ]}
  ]
}
